Literature values as cited in EP1288303A1, “Inducible expression systems employing PPAR transcriptional activators” (Aventis Pharma S.A., priority 2001, dated 2003).

Conditions: form not soluble in water; doses between 5 and 50 mg/kg, for example 30 mg/kg

- plasma concentration: about 15 µg/ml
SMILES: CN(CCOc1ccc(CC2SC(=O)NC2=O)cc1)c1ccccn1 (stereo not shown) [BRL49653, rosiglitazone]
